# Experimental data from PubChem BioAssay (NCI).
#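 Method: 48-hour compound exposure of cells in 96-well plates, five concentrations, linear interpolation of endpoints. TGI denotes the concentration required for complete inhibition of growth.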
# Assays:
# Assay in all cases: inhibition of tumour cell growth, NCI panel, 48 h
# 786-0 renal = test system: 786-0 renal
# A498 renal = test system: A498 renal
# A549 NSCLC = test system: A549 NSCLC
# ACHN renal = test system: ACHN renal
# CAKI-1 renal = test system: CAKI-1 renal
# COLO 205 colon = test system: COLO 205 colon
# DLD-1 colon = test system: DLD-1 colon
# DMS 114 small cell lung = test system: DMS 114 small cell lung
# DMS 273 small cell lung = test system: DMS 273 small cell lung
# EKVX NSCLC = test system: EKVX NSCLC
# HCC-2998 colon = test system: HCC-2998 colon
# HCT-116 colon = test system: HCT-116 colon
# HCT-15 colon = test system: HCT-15 colon
# HOP-18 NSCLC = test system: HOP-18 NSCLC
# HOP-62 NSCLC = test system: HOP-62 NSCLC
# HOP-92 NSCLC = test system: HOP-92 NSCLC
# HT29 colon = test system: HT29 colon
# IGROV1 ovarian = test system: IGROV1 ovarian
# KM12 colon = test system: KM12 colon
# KM20L2 colon = test system: KM20L2 colon
# LOX IMVI melanoma = test system: LOX IMVI melanoma
# LXFL 529 NSCLC = test system: LXFL 529 NSCLC
# M14 melanoma = test system: M14 melanoma
# M19-MEL melanoma = test system: M19-MEL melanoma
# MALME-3M melanoma = test system: MALME-3M melanoma
# MOLT-4 leukemia = test system: MOLT-4 leukemia
# NCI-H226 lung = test system: NCI-H226 lung
# NCI-H23 lung = test system: NCI-H23 lung
# NCI-H460 lung = test system: NCI-H460 lung
# NCI-H522 lung = test system: NCI-H522 lung
# OVCAR-3 ovarian = test system: OVCAR-3 ovarian
# OVCAR-4 ovarian = test system: OVCAR-4 ovarian
# OVCAR-5 ovarian = test system: OVCAR-5 ovarian
# OVCAR-8 ovarian = test system: OVCAR-8 ovarian
# RPMI-8226 leukemia = test system: RPMI-8226 leukemia
# RXF 393 renal = test system: RXF 393 renal
# SF-268 CNS = test system: SF-268 CNS
# SF-295 CNS = test system: SF-295 CNS
# SF-539 CNS = test system: SF-539 CNS
# SK-MEL-2 melanoma = test system: SK-MEL-2 melanoma
# SK-MEL-28 melanoma = test system: SK-MEL-28 melanoma
# SK-MEL-5 melanoma = test system: SK-MEL-5 melanoma
# SK-OV-3 ovarian = test system: SK-OV-3 ovarian
# SN12C renal = test system: SN12C renal
# SNB-19 CNS = test system: SNB-19 CNS
# SNB-75 CNS = test system: SNB-75 CNS
# SNB-78 CNS = test system: SNB-78 CNS
# SR leukemia = test system: SR leukemia
# SW-620 colon = test system: SW-620 colon
# TK-10 renal = test system: TK-10 renal
# U251 CNS = test system: U251 CNS
# UACC-257 melanoma = test system: UACC-257 melanoma
# UACC-62 melanoma = test system: UACC-62 melanoma
# UO-31 renal = test system: UO-31 renal
# XF 498 CNS = test system: XF 498 CNS
# CCRF-CEM leukemia = test system: CCRF-CEM leukemia
# HL-60(TB) leukemia = test system: HL-60(TB) leukemia
# K-562 leukemia = test system: K-562 leukemia
compound,measurement,setting,value
S=c1sc2c(Cl)ncnc2n1-c1ccccc1,TGI,786-0 renal,29.2 µM
same,TGI,A498 renal,30.9 µM
same,TGI,A549 NSCLC,67.8 µM
same,TGI,ACHN renal,30 µM
same,TGI,CAKI-1 renal,13.8 µM
same,TGI,COLO 205 colon,29 µM
same,TGI,DLD-1 colon,24.2 µM
same,TGI,DMS 114 small cell lung,28.1 µM
same,TGI,DMS 273 small cell lung,2.83 µM
same,TGI,EKVX NSCLC,31.5 µM
same,TGI,HCC-2998 colon,31.1 µM
same,TGI,HCT-116 colon,18.6 µM
same,TGI,HCT-15 colon,28.4 µM
same,TGI,HOP-18 NSCLC,39.5 µM
same,TGI,HOP-62 NSCLC,29.3 µM
same,TGI,HOP-92 NSCLC,34.3 µM
same,TGI,HT29 colon,24.1 µM
same,TGI,IGROV1 ovarian,28.2 µM
same,TGI,KM12 colon,31 µM
same,TGI,KM20L2 colon,34.2 µM
same,TGI,LOX IMVI melanoma,16.6 µM
same,TGI,LXFL 529 NSCLC,24.9 µM
same,TGI,M14 melanoma,26.3 µM
same,TGI,M19-MEL melanoma,13.1 µM
same,TGI,MALME-3M melanoma,23.9 µM
same,TGI,MOLT-4 leukemia,56.1 µM
same,TGI,NCI-H226 lung,26.4 µM
same,TGI,NCI-H23 lung,31.7 µM
same,TGI,NCI-H460 lung,32.6 µM
same,TGI,NCI-H522 lung,3.8 µM
same,TGI,OVCAR-3 ovarian,28.9 µM
same,TGI,OVCAR-4 ovarian,33.6 µM
same,TGI,OVCAR-5 ovarian,53.8 µM
same,TGI,OVCAR-8 ovarian,31.6 µM
same,TGI,RPMI-8226 leukemia,56.7 µM
same,TGI,RXF 393 renal,28.9 µM
same,TGI,SF-268 CNS,18.5 µM
same,TGI,SF-295 CNS,25.5 µM
same,TGI,SF-539 CNS,29.9 µM
same,TGI,SK-MEL-2 melanoma,21.3 µM
same,TGI,SK-MEL-28 melanoma,23.6 µM
same,TGI,SK-MEL-5 melanoma,29.7 µM
same,TGI,SK-OV-3 ovarian,34.3 µM
same,TGI,SN12C renal,29.4 µM
same,TGI,SNB-19 CNS,32.9 µM
same,TGI,SNB-75 CNS,27.4 µM
same,TGI,SNB-78 CNS,33.4 µM
same,TGI,SR leukemia,9.36 µM
same,TGI,SW-620 colon,35.1 µM
same,TGI,TK-10 renal,33.2 µM
same,TGI,U251 CNS,29.5 µM
same,TGI,UACC-257 melanoma,33.6 µM
same,TGI,UACC-62 melanoma,21.4 µM
same,TGI,UO-31 renal,32.7 µM
same,TGI,XF 498 CNS,28.7 µM
COc1cc(CCc2cccnc2)cc(OC)c1OC,TGI,786-0 renal,> 100 µM
same,TGI,A498 renal,> 100 µM
same,TGI,A549 NSCLC,> 100 µM
same,TGI,ACHN renal,> 100 µM
same,TGI,CAKI-1 renal,> 100 µM
same,TGI,CCRF-CEM leukemia,> 100 µM
same,TGI,COLO 205 colon,> 100 µM
same,TGI,DLD-1 colon,> 100 µM
same,TGI,DMS 114 small cell lung,> 100 µM
same,TGI,DMS 273 small cell lung,> 100 µM
same,TGI,EKVX NSCLC,> 100 µM
same,TGI,HCT-116 colon,> 100 µM
same,TGI,HCT-15 colon,> 100 µM
same,TGI,HL-60(TB) leukemia,> 100 µM
same,TGI,HOP-18 NSCLC,> 100 µM
same,TGI,HOP-62 NSCLC,> 100 µM
same,TGI,HOP-92 NSCLC,> 100 µM
same,TGI,HT29 colon,> 100 µM
same,TGI,IGROV1 ovarian,> 100 µM
same,TGI,K-562 leukemia,> 100 µM
same,TGI,KM12 colon,> 100 µM
same,TGI,KM20L2 colon,> 100 µM
same,TGI,LOX IMVI melanoma,> 100 µM
same,TGI,LXFL 529 NSCLC,> 100 µM
same,TGI,M14 melanoma,> 100 µM
same,TGI,M19-MEL melanoma,> 100 µM
same,TGI,MALME-3M melanoma,> 100 µM
same,TGI,MOLT-4 leukemia,> 100 µM
same,TGI,NCI-H226 lung,> 100 µM
same,TGI,NCI-H23 lung,> 100 µM
same,TGI,NCI-H460 lung,> 100 µM
same,TGI,NCI-H522 lung,> 100 µM
same,TGI,OVCAR-3 ovarian,> 100 µM
same,TGI,OVCAR-4 ovarian,> 100 µM
same,TGI,OVCAR-5 ovarian,> 100 µM
same,TGI,OVCAR-8 ovarian,> 100 µM
same,TGI,RPMI-8226 leukemia,> 100 µM
same,TGI,RXF 393 renal,> 100 µM
same,TGI,SF-268 CNS,> 100 µM
same,TGI,SF-295 CNS,> 100 µM
same,TGI,SF-539 CNS,> 100 µM
same,TGI,SK-MEL-28 melanoma,> 100 µM
same,TGI,SK-MEL-5 melanoma,> 100 µM
same,TGI,SN12C renal,> 100 µM
same,TGI,SNB-19 CNS,> 100 µM
same,TGI,SNB-75 CNS,> 100 µM
same,TGI,SNB-78 CNS,> 100 µM
same,TGI,SW-620 colon,> 100 µM
same,TGI,TK-10 renal,> 100 µM
same,TGI,U251 CNS,> 100 µM
same,TGI,UACC-257 melanoma,> 100 µM
same,TGI,UACC-62 melanoma,> 100 µM
same,TGI,UO-31 renal,> 100 µM
CC12CC3C(CC1SCC(=O)O2)C3(C)C (configuration not stated),TGI,786-0 renal,> 100 µM
same,TGI,A498 renal,> 100 µM
same,TGI,A549 NSCLC,> 100 µM
same,TGI,ACHN renal,> 100 µM
same,TGI,CCRF-CEM leukemia,> 100 µM
same,TGI,COLO 205 colon,> 100 µM
same,TGI,DLD-1 colon,> 100 µM
same,TGI,DMS 114 small cell lung,> 100 µM
same,TGI,DMS 273 small cell lung,> 100 µM
same,TGI,EKVX NSCLC,> 100 µM
same,TGI,HCC-2998 colon,> 100 µM
same,TGI,HCT-116 colon,> 100 µM
same,TGI,HCT-15 colon,> 100 µM
same,TGI,HL-60(TB) leukemia,> 100 µM
same,TGI,HOP-18 NSCLC,> 100 µM
same,TGI,HOP-92 NSCLC,> 100 µM
same,TGI,HT29 colon,> 100 µM
same,TGI,IGROV1 ovarian,> 100 µM
same,TGI,K-562 leukemia,> 100 µM
same,TGI,KM12 colon,> 100 µM
same,TGI,LXFL 529 NSCLC,> 100 µM
same,TGI,M14 melanoma,> 100 µM
same,TGI,M19-MEL melanoma,> 100 µM
same,TGI,MALME-3M melanoma,> 100 µM
same,TGI,MOLT-4 leukemia,> 100 µM
same,TGI,NCI-H23 lung,> 100 µM
same,TGI,NCI-H460 lung,> 100 µM
same,TGI,OVCAR-3 ovarian,> 100 µM
same,TGI,OVCAR-4 ovarian,> 100 µM
same,TGI,OVCAR-5 ovarian,> 100 µM
same,TGI,OVCAR-8 ovarian,> 100 µM
same,TGI,RPMI-8226 leukemia,> 100 µM
same,TGI,SF-268 CNS,> 100 µM
same,TGI,SF-295 CNS,> 100 µM
same,TGI,SF-539 CNS,> 100 µM
same,TGI,SK-MEL-2 melanoma,> 100 µM
same,TGI,SK-MEL-28 melanoma,> 100 µM
same,TGI,SK-MEL-5 melanoma,> 100 µM
same,TGI,SK-OV-3 ovarian,> 100 µM
same,TGI,SN12C renal,> 100 µM
same,TGI,SNB-75 CNS,> 100 µM
same,TGI,SNB-78 CNS,> 100 µM
same,TGI,TK-10 renal,> 100 µM
same,TGI,U251 CNS,> 100 µM
same,TGI,UACC-257 melanoma,> 100 µM
same,TGI,UO-31 renal,> 100 µM
same,TGI,XF 498 CNS,> 100 µM
CCCNC1CC(n2cc(C)c(=O)[nH]c2=O)OC1CO (configuration not stated),TGI,786-0 renal,> 100 µM
same,TGI,ACHN renal,> 100 µM
same,TGI,CAKI-1 renal,> 100 µM
same,TGI,CCRF-CEM leukemia,> 100 µM
same,TGI,COLO 205 colon,> 100 µM
same,TGI,DLD-1 colon,> 100 µM
same,TGI,DMS 114 small cell lung,> 100 µM
same,TGI,DMS 273 small cell lung,> 100 µM
same,TGI,HCC-2998 colon,> 100 µM
same,TGI,HCT-116 colon,> 100 µM
same,TGI,HL-60(TB) leukemia,> 100 µM
same,TGI,HOP-62 NSCLC,> 100 µM
same,TGI,HOP-92 NSCLC,> 100 µM
same,TGI,IGROV1 ovarian,> 100 µM
same,TGI,K-562 leukemia,> 100 µM
same,TGI,LXFL 529 NSCLC,> 100 µM
same,TGI,M14 melanoma,> 100 µM
same,TGI,M19-MEL melanoma,> 100 µM
same,TGI,MALME-3M melanoma,> 100 µM
same,TGI,MOLT-4 leukemia,> 100 µM
same,TGI,NCI-H226 lung,> 100 µM
same,TGI,NCI-H23 lung,> 100 µM
same,TGI,NCI-H460 lung,> 100 µM
same,TGI,NCI-H522 lung,> 100 µM
same,TGI,OVCAR-4 ovarian,> 100 µM
same,TGI,RPMI-8226 leukemia,> 100 µM
same,TGI,SF-268 CNS,> 100 µM
same,TGI,SF-539 CNS,> 100 µM
same,TGI,SK-MEL-2 melanoma,> 100 µM
same,TGI,SK-MEL-28 melanoma,> 100 µM
same,TGI,SK-OV-3 ovarian,> 100 µM
same,TGI,SN12C renal,> 100 µM
same,TGI,SNB-75 CNS,> 100 µM
same,TGI,SNB-78 CNS,> 100 µM
same,TGI,SR leukemia,> 100 µM
same,TGI,UACC-62 melanoma,> 100 µM
same,TGI,UO-31 renal,> 100 µM
